Tests used:
[1] = tested on: Th1/Th2 and inflammatory cytokine responses; experiment: Splenic lymphocyte frequency and whole organ cytokines in infected DKA mice; type: in vivo
Procedure: Splenic lymphocyte frequencies were determined as we have previously described (Spellberg et al., Infect. Immun. 71:5756-5764 (2003)). In brief, splenic homogenates were passed through 70 μm filters followed by RBC lysis with 0.15 M ammonium chloride. The cells were fixed with Cytofix™ buffer (BD Pharmingen®), permeabilized with Cytoperm™ buffer (BD Pharmingen), and stained with 10 μg/ml of FITC-conjugated anti-mouse CD4 (clone RM4-5), PE-conjugated anti-mouse IFN-γ (clone XMG1.2) or isotype control (clone R-34), allophycocyanin (APC)-conjugated anti-mouse IL-4 (clone 11B11) or isotype control (clone R3-34), or APC-conjugated anti-mouse IL-10 (clone JES5-16E3) or isotype control (clone A95-1) (all from BD Pharmingen). In separate experiments, the frequency of CD4+CD25+foxp3+T-regulatory cells were determined using the Mouse Regulatory T cell Staining™ Kit (eBioscience®) per the manufacturer's recommendation. The frequency of apoptosis was determined using the Annexin FITC Apoptosis™ kit (BD Pharmingen®).
Cells were washed and three-color flow cytometry was performed on a Becton-Dickinson FACScan™ instrument calibrated with CaliBRITE™ beads (BD Pharmingen) using FACSComp™ software as per the manufacturer's recommendations. During data acquisition, CD4+lymphocytes were gated by concatenation of forward and side scatter, and FITC-anti-CD4 antibody fluorescence properties. Data for each sample were acquired until 10,000 CD4+lymphocytes were analyzed.
Spleens and kidneys were homogenized in 1 ml of PBS. The homogenates were pelleted at maximum speed on a tabletop centrifuge at 4° C. The supernatants were assayed for cytokines using the Cytometric Bead Array Murine Inflammatory Cytokine™ kit (BD Pharmingen) per the manufacturer's instructions.
Because of the alterations in inflammatory cellular influx seen in kidneys of mice treated with saturating ferric chloride vs. iron chelation, in this example we determined the impact of deferasirox therapy on Th1/Th2 and inflammatory cytokine responses in infected mice. Diabetic ketoacidotic mice were infected with 3.1×10^4 spores of R. oryzae 99-892 as above and treated with deferasirox, deferasirox plus ferric chloride, or placebo. On day four of infection, spleens and kidneys were processed for intracellular and whole organ cytokine determination.

[2] = tested on: rFTR1 promoter; experiment: Green fluorescent protein (GFP) reporter assay, rFTR1 promoter; type: cell-based, Rhizopus oryzae; conditions: R. oryzae M16 transformed with rFTR1p::GFP
Excerpt: A 1.5 kb fragment upstream of the rFTR10RF was PCR amplified using the following primer pair: sense primer 5′-[…]-3′; and anti-sense primer 5′-[…]-3′. A 2.1 kb fragment containing the constitutively expressed actin promoter was also PCR amplified to use as a control using the following primer pair: sense 5′[…]-3′; and anti-sense:5′ […]-3. Amplified fragments were ligated into the XbaI and EagI sites of plasmid pyr225b (35). GFP was amplified from pGFPB21-43.31 (36), and cloned downstream of either promoter into EagI-SacI sites of the plasmid downstream of either promoter. Finally, a 2.1 kb fragment representing the ORF of pyrF and its native promoter was cloned into SpeI-ClaI sites of the plasmid to serve as a selection marker. […] Purified transformants selected on uracil negative plates were analyzed by Southern blotting.
Expression of rFTR1p and ACT1p were studied in transformants grown in iron-replete medium (i.e. YNB+CSM-URA) or iron-depleted conditions (i.e. YNB+CSM-URA supplemented with 2 mM deferasirox). […] Additionally, a 1 ml sample from each culture was also used to quantify the fluorescence emission using a FACSCaliber™ (Becton Dickinson®) instrument equipped with an argon laser emitting at 488 nm. Spores were gated by forward and side scatter and fluorescence measured in FL1. […]

[3] = R. oryzae 99-892, between the groups
[4] = R. oryzae 99-892, vs saturating iron or placebo

O=C(O)c1ccc(-n2nc(-c3ccccc3O)nc2-c2ccccc2O)cc1 [Deferasirox, 4-[3,5-Bis(2-hydroxyphenyl)-1H-1,2,4-triazol-1-yl]-benzoic acid]
Th1 and Th2 splenocyte frequencies ([1]; 3.1×10^4 spores R. oryzae 99-892, day four, vs saturating ferric chloride or placebo): significant increase
kidney level of IFN-γ ([1]; R. oryzae 99-892): significantly higher
frequencies of CD4+IL-10+ or CD4+CD25+foxp3+ splenocytes [1, 3]: not significantly different
splenocyte apoptosis [1, 3]: no significant difference
splenic level of IFN-γ [1, 4]: significantly higher
splenic level of TNF [1, 4]: significantly higher
GFP fluorescence by confocal microscopy ([2]; 2 mM deferasirox): fluorescent
fluorescent spores by flow cytometry ([2]; 2 mM deferasirox overnight, iron-replete less than 1%): 43%
